In US10899786B2, “Nucleoside phosphate compound and preparation method and use thereof” (SICHUAN KELUN-BIOTECH BIOPHARMACEUTICAL CO., LTD., priority 2016, dated 2021):

Experiments:
[1] = system: CYP450 enzymes; assay: CYP inhibition test, overall statement on the eight CYP450 enzymes; format: in vitro ADME; conditions: all the eight CYP450 enzymes
Experimental: (§1) The compound was dissolved in DMSO to prepare a 10 mM stock solution. The stock solution was further diluted into a series of working solutions of 5, 1.5, 0.5, 0.15, 0.05, 0.015 and 0.005 mM with a mixed solvent of DMSO:methanol=1:1.
(§2) The substrates were each dissolved in DMSO to prepare stock solutions of the corresponding concentrations.
(§3) The positive controls were each dissolved in DMSO to prepare stock solutions of the corresponding concentrations. They were then diluted with methanol to the corresponding concentrations of working solutions.
(§4) The protein concentration of liver microsomes in the reaction system was 0.2 mg/mL, and the coenzyme NADPH was 1.0 mM. The incubation was carried out in a water bath at 37° C. The reaction was quenched and subjected to conventional procedures for LC-MS/MS analysis.
The risk of drug interaction is little, and thus higher safety exists. Other compounds of the invention all have similar safety.

[2] = biological target: T1, CYP2C9 (Homo sapiens, UniProt P11712); assay: CYP inhibition test, liver microsome incubation; format: in vitro ADME; conditions: liver microsomes, probe diclofenac
T1 construct: The protein concentration of liver microsomes in the reaction system was 0.2 mg/mL; from tissue; host or cells: liver microsomes
T1 sequence (P11712 whole entry): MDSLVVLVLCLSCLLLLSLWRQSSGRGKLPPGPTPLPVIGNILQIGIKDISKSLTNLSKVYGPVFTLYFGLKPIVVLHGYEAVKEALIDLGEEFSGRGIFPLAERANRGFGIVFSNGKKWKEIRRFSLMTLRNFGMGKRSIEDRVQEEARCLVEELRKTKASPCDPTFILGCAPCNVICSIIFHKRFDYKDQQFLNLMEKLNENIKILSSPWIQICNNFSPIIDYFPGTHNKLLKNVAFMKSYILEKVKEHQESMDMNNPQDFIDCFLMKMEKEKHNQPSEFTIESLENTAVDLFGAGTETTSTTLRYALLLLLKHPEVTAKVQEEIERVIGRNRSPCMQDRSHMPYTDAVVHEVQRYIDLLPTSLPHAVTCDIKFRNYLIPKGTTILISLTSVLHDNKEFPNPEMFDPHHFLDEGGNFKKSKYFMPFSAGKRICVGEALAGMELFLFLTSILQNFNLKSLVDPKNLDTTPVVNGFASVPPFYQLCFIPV
Experimental: as §1, §2, §3, §4

[3] = biological target: T2, CYP2C8 (Homo sapiens, UniProt P10632); assay: CYP inhibition test, liver microsome incubation; format: in vitro ADME; conditions: liver microsomes, probe amodiaquine
T2 construct: from tissue; host or cells: liver microsomes
T2 sequence (P10632 1-490): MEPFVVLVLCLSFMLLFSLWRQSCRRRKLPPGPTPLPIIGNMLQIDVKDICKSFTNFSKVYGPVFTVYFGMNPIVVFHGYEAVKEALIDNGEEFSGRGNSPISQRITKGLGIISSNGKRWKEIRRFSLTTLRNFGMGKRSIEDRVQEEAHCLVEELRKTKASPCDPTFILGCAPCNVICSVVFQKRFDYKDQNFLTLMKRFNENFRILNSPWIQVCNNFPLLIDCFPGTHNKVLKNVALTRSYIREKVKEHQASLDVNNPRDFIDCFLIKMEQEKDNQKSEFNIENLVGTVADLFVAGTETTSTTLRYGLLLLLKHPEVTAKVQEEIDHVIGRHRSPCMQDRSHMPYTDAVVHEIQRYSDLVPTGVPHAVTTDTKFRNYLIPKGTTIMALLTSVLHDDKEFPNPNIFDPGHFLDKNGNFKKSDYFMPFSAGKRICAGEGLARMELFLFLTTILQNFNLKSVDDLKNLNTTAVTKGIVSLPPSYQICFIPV
Experimental: as §1, §2, §3, §4

[4] = biological target: T3, CYP2D6 (Homo sapiens, UniProt P10635); assay: CYP inhibition test, liver microsome incubation; format: in vitro ADME; conditions: liver microsomes, probe dextromethorphan
T3 construct: from tissue; host or cells: liver microsomes
T3 sequence (P10635 whole entry): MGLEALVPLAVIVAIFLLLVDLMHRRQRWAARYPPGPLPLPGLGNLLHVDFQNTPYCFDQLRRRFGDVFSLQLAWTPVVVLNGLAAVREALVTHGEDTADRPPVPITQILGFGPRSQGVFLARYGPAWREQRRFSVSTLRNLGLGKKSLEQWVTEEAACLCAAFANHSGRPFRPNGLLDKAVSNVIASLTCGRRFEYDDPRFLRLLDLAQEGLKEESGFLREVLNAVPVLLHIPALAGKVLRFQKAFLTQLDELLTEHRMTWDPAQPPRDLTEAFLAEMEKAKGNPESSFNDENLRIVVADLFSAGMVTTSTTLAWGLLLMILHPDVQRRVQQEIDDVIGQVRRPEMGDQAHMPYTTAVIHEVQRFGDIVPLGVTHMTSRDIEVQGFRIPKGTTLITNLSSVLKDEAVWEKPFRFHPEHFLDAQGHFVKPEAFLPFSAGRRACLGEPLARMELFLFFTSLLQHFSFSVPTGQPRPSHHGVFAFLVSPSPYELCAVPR
Experimental: as §1, §2, §3, §4

[5] = biological target: T4, CYP3A4 (Homo sapiens, UniProt P08684); assay: CYP inhibition test, liver microsome incubation; format: in vitro ADME; conditions: liver microsomes
T4 construct: The protein concentration of liver microsomes in the reaction system was 0.2 mg/mL; from tissue; host or cells: liver microsomes
T4 sequence (P08684 whole entry): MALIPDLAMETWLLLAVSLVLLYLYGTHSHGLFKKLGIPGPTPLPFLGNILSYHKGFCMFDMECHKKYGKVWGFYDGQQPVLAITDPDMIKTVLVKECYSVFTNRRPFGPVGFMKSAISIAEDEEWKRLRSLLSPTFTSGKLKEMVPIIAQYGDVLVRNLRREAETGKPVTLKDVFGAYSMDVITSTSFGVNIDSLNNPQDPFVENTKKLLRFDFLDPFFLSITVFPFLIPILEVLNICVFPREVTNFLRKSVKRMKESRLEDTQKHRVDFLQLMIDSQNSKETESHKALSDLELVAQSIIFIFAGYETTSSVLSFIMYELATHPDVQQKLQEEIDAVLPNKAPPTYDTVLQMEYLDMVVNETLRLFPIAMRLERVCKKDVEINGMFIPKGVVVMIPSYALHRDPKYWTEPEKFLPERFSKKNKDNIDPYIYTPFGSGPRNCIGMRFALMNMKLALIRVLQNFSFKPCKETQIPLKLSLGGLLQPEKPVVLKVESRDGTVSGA
Experimental: as §1, §2, §3, §4

[6] = biological target: T5, CYP2B6 (Homo sapiens, UniProt P20813); assay: CYP inhibition test, liver microsome incubation; format: in vitro ADME; conditions: liver microsomes, probe bupropion
T5 construct: The protein concentration of liver microsomes in the reaction system was 0.2 mg/mL; from tissue; host or cells: liver microsomes
T5 sequence (P20813 1-491): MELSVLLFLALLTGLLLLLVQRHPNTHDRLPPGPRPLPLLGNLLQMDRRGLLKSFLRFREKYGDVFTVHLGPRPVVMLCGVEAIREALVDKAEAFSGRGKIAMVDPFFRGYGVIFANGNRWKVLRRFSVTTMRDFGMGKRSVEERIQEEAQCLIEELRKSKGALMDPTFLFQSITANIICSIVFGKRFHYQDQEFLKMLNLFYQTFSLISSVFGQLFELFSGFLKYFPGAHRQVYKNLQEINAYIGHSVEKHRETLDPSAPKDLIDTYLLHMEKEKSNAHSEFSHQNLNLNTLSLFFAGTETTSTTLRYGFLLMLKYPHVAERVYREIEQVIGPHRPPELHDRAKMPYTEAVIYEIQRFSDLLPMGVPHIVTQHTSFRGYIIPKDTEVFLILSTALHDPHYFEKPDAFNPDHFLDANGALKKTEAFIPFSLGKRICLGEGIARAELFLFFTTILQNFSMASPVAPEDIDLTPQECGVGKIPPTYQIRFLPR
Experimental: as §1, §2, §3, §4

[7] = biological target: T6, CYP1A2 (Homo sapiens, UniProt P05177); assay: CYP inhibition test, liver microsome incubation; format: in vitro ADME; conditions: liver microsomes, probe phenacetin
T6 construct: from tissue; host or cells: liver microsomes
T6 sequence (P05177 1-516): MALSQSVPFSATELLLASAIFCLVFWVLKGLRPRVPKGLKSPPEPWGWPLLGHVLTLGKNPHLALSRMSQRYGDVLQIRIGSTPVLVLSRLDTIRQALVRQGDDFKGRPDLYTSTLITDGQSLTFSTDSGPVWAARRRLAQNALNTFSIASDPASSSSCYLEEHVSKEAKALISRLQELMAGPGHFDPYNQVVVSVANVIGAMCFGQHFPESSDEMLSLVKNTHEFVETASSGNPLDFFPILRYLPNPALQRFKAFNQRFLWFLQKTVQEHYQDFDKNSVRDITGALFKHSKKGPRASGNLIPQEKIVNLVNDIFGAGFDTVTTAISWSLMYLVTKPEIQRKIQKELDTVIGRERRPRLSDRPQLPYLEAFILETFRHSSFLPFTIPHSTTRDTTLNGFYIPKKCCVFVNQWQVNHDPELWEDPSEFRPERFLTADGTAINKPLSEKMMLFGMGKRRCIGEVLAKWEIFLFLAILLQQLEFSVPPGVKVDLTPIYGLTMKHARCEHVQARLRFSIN
Experimental: as §1, §2, §3, §4

[8] = biological target: T7, CYP2C19 (Homo sapiens, UniProt P33261); assay: CYP inhibition test, liver microsome incubation; format: in vitro ADME; conditions: liver microsomes, probe methoin
T7 construct: The protein concentration of liver microsomes in the reaction system was 0.2 mg/mL; from tissue; host or cells: liver microsomes
T7 sequence (P33261 whole entry): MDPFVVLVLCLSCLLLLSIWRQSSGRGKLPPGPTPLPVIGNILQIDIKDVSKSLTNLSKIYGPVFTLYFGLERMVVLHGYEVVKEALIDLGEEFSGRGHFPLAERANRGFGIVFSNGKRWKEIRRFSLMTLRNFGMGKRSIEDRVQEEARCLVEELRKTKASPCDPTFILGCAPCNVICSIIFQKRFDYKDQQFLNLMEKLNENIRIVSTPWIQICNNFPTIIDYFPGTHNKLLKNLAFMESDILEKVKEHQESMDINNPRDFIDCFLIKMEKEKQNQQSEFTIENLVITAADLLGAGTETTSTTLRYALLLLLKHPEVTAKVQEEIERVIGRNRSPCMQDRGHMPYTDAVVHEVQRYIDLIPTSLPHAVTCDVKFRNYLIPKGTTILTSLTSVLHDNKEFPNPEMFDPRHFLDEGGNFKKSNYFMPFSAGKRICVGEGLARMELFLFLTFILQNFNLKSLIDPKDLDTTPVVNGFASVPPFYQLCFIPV
Experimental: as §1, §2, §3, §4

[9] = system: hepatitis B virus (HBV); assay: In vitro pharmacological test: HBV DNA replication in HepG2.2.15 cells; format: cell-based
Experimental: The inhibitory effect of the compounds of the invention on hepatitis B virus (HBV) was tested. The cytotoxicity of the compounds of the invention and the effect thereof on viral (HBV) nucleic acid (DNA) replication levels were tested at cellular level.
HepG2.2.15 cells in logarithmic growth phase were seeded in a 96-well plate at a cell concentration of 40 cells/μL, and were incubate for 3 days at 37° C. in a 5% CO2 incubator. The medium was replaced with new medium (200 μL/well) before adding the compound. The concentration of each compound of the examples in the stock solutions was 200 μM. The highest concentration was 200 μM, and dilution with DMSO lead to a number of different concentrations. 1 μL of the test compound was placed in the corresponding medium well, and the final test concentrations of the compounds were 0.06, 0.24, 0.98, 3.9, 15.6, 62.5, 250, 1000 nM (for calculating the medium effective concentration (EC50)).

[10] = male, ICR, mouse, in vivo, po, 10 mg/kg

Row | concentration of Metabolite 1 in liver relative to the plasma concentration [10] [times] | Structure (SMILES) | inhibitory effect on the eight CYP450 enzymes (in words) [1] | IC50 [2] [µM] | IC50 [3] [µM] | IC50 [4] [µM] | IC50 ([5]; probe midazolam) [µM] | IC50 ([5]; probe testosterone) [µM] | IC50 [6] [µM] | IC50 [7] [µM] | IC50 [8] [µM] | EC50 [9] [nM]
1 |  | C[C@H](Cn1cnc2c(N)ncnc21)OCP(=O)(NCCOCc1ccccc1)Oc1ccccc1 (mixture of isomers) [Ex. 15, ((((R)-1-(6-amino-9H-purin-9-yl)propan-2-yl)oxy)methyl)-phenoxy-N-(2-(benzyloxy)ethyl)phosphoramide] | no inhibitory effect | > 50 | > 50 | > 50 | 11.6 | 13.3 | > 50 | > 50 | > 50 | 54.7 ± 26.4
2 | 21 | C[C@H](Cn1cnc2c(N)ncnc21)OCP(=O)(O)O (single isomer, unassigned) [Metabolite 1 of Compound 22 - Isomer B of Example 16] |  |  |  |  |  |  |  |  |  | 
